Measurements: ChEMBL document CHEMBL1121858, “Synthesis and antimalarial activity of 8-[(1-alkyl-4-aminobutyl)amino]-6-methoxy-4-methylquinolines” (1981)
Where “and” joins values, the source holds several entries; their conditions need not be identical. Identical values can stand only once.

Legend:
Format in all cases: functional
Mus musculus [1] = test: Mean survival time of Plasmodium berghei infected mice (Mus musculus) after administration of single dose of 160 mg/kg intravenously; conditions: route intravenous
Mus musculus [2] = test: Mean survival time of Plasmodium berghei infected mice (Mus musculus) after administration of single dose of 80 mg/kg intravenously; conditions: route intravenous
Mus musculus [3] = test: Mean survival time of Plasmodium berghei infected mice (Mus musculus) after administration of single dose of […] intravenously
Mus musculus [4] = test: Mean survival time of Plasmodium berghei infected mice (Mus musculus) after administration of single dose of 40 mg/kg intravenously; conditions: route intravenous
Mus musculus [5] = test: Mean survival time of Plasmodium berghei infected mice (Mus musculus) after administration of single dose of 20 mg/kg intravenously; conditions: route intravenous
Mus musculus [6] = test: Mean survival time of Plasmodium berghei infected mice (Mus musculus) after administration of single dose of 640 mg/kg intravenously; conditions: route intravenous

Row | Structure (SMILES) | MST (Mus musculus [1]; 160 mg/kg) | MST (Mus musculus [2]; 80 mg/kg) | MST (Mus musculus [3]) [days] | MST (Mus musculus [4]; 40 mg/kg) | MST (Mus musculus [5]; 20 mg/kg) | MST (Mus musculus [6]) [days] | MST (Mus musculus [1]) [days] | MST (Mus musculus [2]) [days] | MST (Mus musculus [4]) [days] | MST (Mus musculus [5]) [days]
1 | COc1cc(NC(C)CCCN)c2ncccc2c1.O=P(O)(O)O.O=P(O)(O)O (centres undefined) [PRIMAQUINE PHOSPHATE] | 7 days and 10.8 days | 6.4 days and 9.4 days | 5 | 4.2 days and 5 days | 2.2 days and 4 days | 5 | – | – | – | –
2 | CCCC(CCCN)Nc1cc(OC)cc2c(C)ccnc12.O=P(O)(O)O (centres undefined) | – | – | 9.1 | – | – | 12.3 | 6.3 | 5.7 | 4.1 | 3.1
3 | CCC(CCCN)Nc1cc(OC)cc2c(C)ccnc12.O=P(O)(O)O (centres undefined) | – | – | 5 | – | – | 5 | 11.5 | 9.7 | 7.9 | 7.3
4 | COc1cc(NC(CCCN)C(C)C)c2nccc(C)c2c1.O=P(O)(O)O (centres undefined) | – | – | 7.2 | – | – | 1 | 7.8 | 6.8 | 5.2 | 3.4
